Assay results published in patent US20100022589A1, “PYRIDINE-3-CARBOXAMIDE COMPOUNDS AND THEIR USE FOR INHIBITING 11-BETA-HYDROXYSTEROID DEHYDROGENASE” (priority 2006, published 2010).

Target: T1, human 11βHSD1 enzyme (Homo sapiens, UniProt P28845)
T1 construct: N terminal 6-His tagged full length human 11βHSD1 enzyme; 6-His (N); made in house
Experiment: 11βHSD1 competitive HTRF assay (conversion of cortisone to cortisol)
Type: biochemical
Settings: for IC50: baculovirus expressed N terminal 6-His tagged full length human 11βHSD1, cortisone 160 nM, 25 minutes at 37° C.; for activity in the 11βHSD1 assay: at 30 μM
Procedure: The conversion of cortisone to the active steroid cortisol by 11βHSD1 oxo-reductase activity, can be measured using a competitive homogeneous time resolved fluorescence assay (HTRF) (CisBio International, R&D, Administration and Europe Office, In Vitro Technologies—HTRF®/Bioassays BP 84175, 30204 Bagnols/Cèze Cedex, France. Cortisol bulk HTRF kit: Cat No. 62CORPEC).
The evaluation of compounds described herein was carried out using a baculovirus expressed N terminal 6-His tagged full length human 11βHSD1 enzyme(*1). The enzyme was purified from a detergent solublised cell lysate, using a copper chelate column. Inhibitors of 11βHSD1 reduce the conversion of cortisone to cortisol, which is identified by an increase in signal, in the above assay.
Compounds to be tested were dissolved in dimethyl sulphoxide (DMSO) to 10 mM and diluted further in assay buffer containing 10% DMSO to 10 fold the final assay concentration. Diluted compounds were then plated into black 384 well plates (Matrix, Hudson N.H., USA).
The assay was carried out in a total volume of 20 μl consisting of cortisone (Sigma, Poole, Dorset, UK, 160 nM), glucose-6-phosphate (Roche Diagnostics, 1 mM), NADPH (Roche Diagnostics, 100 μM), glucose-6-phosphate dehydrogenase (Roche Diagnostics, 12.5 μg/ml), EDTA (Sigma, Poole, Dorset, UK, 1 mM), assay buffer (K2HPO4/KH2PO4, 100 mM) pH 7.5, recombinant 11βHSD1 (1.5 μg/ml) plus test compound. The assay plates were incubated for 25 minutes at 37° C. after which time the reaction was stopped by the addition of 10 μl of 0.5 mM glycerrhetinic acid plus cortisol-XL665. 10 μl of anti-cortisol Cryptate was then added and the plates sealed and incubated for 6 hours at room temperature. Fluorescence at 665 nm and 620 nm was measured and the 665 nm:620 nm ratio calculated using an Envision plate reader.

T1 sequence (P28845 whole entry): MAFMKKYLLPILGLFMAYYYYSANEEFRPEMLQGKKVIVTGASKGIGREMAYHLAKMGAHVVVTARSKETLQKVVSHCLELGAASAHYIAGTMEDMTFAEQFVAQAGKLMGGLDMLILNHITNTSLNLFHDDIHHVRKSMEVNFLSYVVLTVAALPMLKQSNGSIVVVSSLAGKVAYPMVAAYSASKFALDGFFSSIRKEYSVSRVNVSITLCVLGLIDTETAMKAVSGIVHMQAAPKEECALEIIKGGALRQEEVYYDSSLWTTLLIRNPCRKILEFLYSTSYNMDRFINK

Row | SMILES | IC50 [µM] | activity in the 11βHSD1 assay
1 | O=C(NC1CCCCC1)c1cccnc1SCCc1ccccn1 [Example 3, N-Cyclohexyl-2-(2-pyridin-2-ylethylsulfanyl)pyridine-3-carboxamide] | 0.89 | 
2 | O=C(NC1CCCCC1)c1cccnc1SCCc1ccccc1 [Example 4, N-Cyclohexyl-2-phenethylsulfanyl-pyridine-3-carboxamide] | 0.027 | 
3 | O=C(NC1CCCCC1)c1ccc(C(F)(F)F)nc1SCCc1ccccc1 [N-cyclohexyl-2-(phenethylsulfanyl)-6-trifluoromethylpyridine-3-carboxamide] |  | did not show activity
4 | O=C(O)c1ccccc1CCSc1ncccc1C(=O)NC1CCCCC1 [N-cyclohexyl-2-[2-(2-carboxyphenyl)ethyl)sulfanyl]pyridine-3-carboxamide] |  | did not show activity
